Measurements reported in paper PMC2033742, “Comparison of ability of protein kinase C inhibitors to arrest cell growth and to alter cellular protein kinase C localisation” (British Journal of Cancer, 1995).
Read-outs that look alike come from different tables or passages of the source.

What was measured:
cPKC-a = molecular target: T1, cPKC-a (Homo sapiens, UniProt P17252); test: Subcellular localisation of cPKC-alpha in A549 cells, Western blot of cellular fractions; type: cell-based
T1 construct: these three PKC isoenzymes are abundantly ex- pressed in A549 cells; endogenous in cells; host or cells: A549 human lung carcinoma cells
Method: (§1) Compounds with varying degrees of potency and specificity for PKC were investigated in A549 and MCF-7 carcinoma cells. […] To substantiate the role of PKC in the growth inhibition caused by these agents, cells were depleted of PKC by incubation with bryostatin 1 (1 jsM). […] The subcellular distribution of PKC-z-, -e and -< was measured by Western blot analysis. […] Cell growth Human A549 lung and MCF-7 breast carcinoma cells were obtained from the European Collection of Animal Cell Cul- tures (Salisbury, UK). Cells (passage number 10-30) were cultured in an atmosphere of 5% carbon dioxide, the former in Ham's F-12 medium with penicillin/streptomycin, the lat- ter in minimum essential medium (Eagle's modification) with additional pyruvate (1 mM) and non-essential amino acids. Both media were supplemented with 10% FCS (Imperial Laboratories Europe, Andover, UK, and Gibco) and gluta- mine (2 mM). Cells were subcultured routinely twice weekly to maintain logarithmic growth. For cell proliferation studies cells were seeded at a density of 1.3 x 104 cm-2 and incubat- ed with 3 ml of medium including agents, which was replen- ished at intervals of 48 h (A549) or 72 h (MCF-7). Following incubation for 4 days (A549) or 6 days (MCF-7) with drugs, cell number was assessed using a Coulter Counter Model ZM. […] Bryostatin was removed by extensive washing of the cells followed by a 2 h recovery period. […] In some experiments cells were incubated with inhibitor for 48 rather than 24 h, in this case bryostation was not removed and left in the incubate. […] Radioactivity was counted using a Packard 1500 Tricarb scintillation counter. […] The amount of protein loaded per lane was 20 tg for detection of cPKC-oc and 30 lg for nPKC-e. Detection was by enhanced chemi- luminescence generated by oxidation of luminol in the presence of hydrogen peroxide using an ECL kit from Amer- sham International.

[1] = tested on: A549 lung carcinoma cells; test: Cell growth inhibition by cell counting (Coulter Counter), A549; type: cell-based, human
Method: as §1

PKC-depleted A549 cells = test: [3H]Tdr incorporation into PKC-depleted (bryostatin 1 pretreated) A549 cells; type: cell-based, human
Method: as §1

A549 cells = test: [3H]Tdr incorporation into control (naive) A549 cells; type: cell-based, human
Method: as §1

nPKC-e = molecular target: T2, nPKC-e (Homo sapiens, UniProt Q02156); test: Subcellular localisation of nPKC-epsilon in A549 cells, Western blot of cytosolic, particulate and nuclear fractions
T2 sequence (Q02156 1-737): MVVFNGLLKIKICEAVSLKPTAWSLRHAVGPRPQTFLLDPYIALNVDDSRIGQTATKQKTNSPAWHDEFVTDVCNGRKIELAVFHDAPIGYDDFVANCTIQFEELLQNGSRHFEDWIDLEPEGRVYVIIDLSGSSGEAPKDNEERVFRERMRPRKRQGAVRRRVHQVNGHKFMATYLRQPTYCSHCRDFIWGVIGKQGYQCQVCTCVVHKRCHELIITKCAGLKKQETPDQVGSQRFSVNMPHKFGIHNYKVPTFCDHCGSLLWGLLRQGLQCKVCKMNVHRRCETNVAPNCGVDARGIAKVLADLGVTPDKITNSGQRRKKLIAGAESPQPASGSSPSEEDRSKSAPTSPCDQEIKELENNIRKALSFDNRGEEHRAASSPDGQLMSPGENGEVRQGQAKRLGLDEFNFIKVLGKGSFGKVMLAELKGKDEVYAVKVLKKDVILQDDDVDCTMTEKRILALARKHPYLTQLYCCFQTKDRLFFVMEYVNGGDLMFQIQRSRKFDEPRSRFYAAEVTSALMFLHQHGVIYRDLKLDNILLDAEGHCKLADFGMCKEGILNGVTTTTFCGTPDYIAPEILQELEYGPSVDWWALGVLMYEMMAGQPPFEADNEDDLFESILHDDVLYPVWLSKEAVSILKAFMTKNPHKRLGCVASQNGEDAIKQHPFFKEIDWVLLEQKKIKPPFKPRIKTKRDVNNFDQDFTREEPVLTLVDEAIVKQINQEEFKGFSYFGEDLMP
Method: as §1

cPKC-a and nPKC-e = test: PKC down-regulation in A549 cells by bryostatin 1, Western blot; type: cell-based, human; conditions: bryostatin 1 at 1 (micromolar) for 24 h
Method: To substantiate the role of PKC in the growth inhibition caused by these agents, cells were depleted of PKC by incubation with bryostatin 1 (1 jsM). […] The subcellular distribution of PKC-z-, -e and -< was measured by Western blot analysis. […] Bryostatin was removed by extensive washing of the cells followed by a 2 h recovery period. […] In some experiments cells were incubated with inhibitor for 48 rather than 24 h, in this case bryostation was not removed and left in the incubate. […] The amount of protein loaded per lane was 20 tg for detection of cPKC-oc and 30 lg for nPKC-e. Detection was by enhanced chemi- luminescence generated by oxidation of luminol in the presence of hydrogen peroxide using an ECL kit from Amer- sham International.

[2] = tested on: A549 lung carcinoma cells; parameters: method as in Dale and Gescher, 1989; Stanwell et al., 1994; conditions: 24 h with bryostatin 1 (1 micromolar); ref Dale and Gescher, 1989; Stanwell et al., 1994; cited from earlier work
[3] = phase I trials, ref Phillip et al., 1993, Prendiville et al.; cited from earlier work
[4] = A549 cells, 30 min, with TPA 25 nM, staurosporine effect not significant (P = 0.08)
[5] = A549 and MCF-7 cells, read-out: IC50 values for growth arrest (stronger growth inhibitors)
[6] = PKC-depleted A549 cells (bryostatin 1 for 24 h, washed), 24 h with inhibitor, read-out: IC50 for inhibition of [3H]Tdr incorporation
[7] = control A549 cells, 24 h with inhibitor, read-out: IC50 for inhibition of [3H]Tdr incorporation
[8] = Homo sapiens, A549, read-out: IC50 for inhibition of [3H]Tdr incorporation
[9] = weaker enzyme inhibitors, read-out: concentrations which arrested growth
[10] = Homo sapiens, A549, weaker enzyme inhibitors, read-out: concentrations which arrested growth

CO[C@@H]1[C@H](N(C)C(=O)c2ccccc2)C[C@H]2O[C@]1(C)n1c3ccccc3c3c4c(c5c6ccccc6n2c5c31)C(=O)NC4 [CGP 41251]
effect on TPA-induced cPKC-a redistribution (cPKC-a; [4]): failed to affect TPA-induced cPKC-a redistribution

Cn1cc(C2=C(c3cn(CCCSC(=N)N)c4ccccc34)C(=O)NC2=O)c2ccccc21 [RO 31-8220]
IC50 [1, 5]: < 1000 nM | IC50 (PKC-depleted A549 cells; [6]): 1600 nM | IC50 (A549 cells; [7]): 1900 nM | effect on TPA-induced cPKC-a redistribution (cPKC-a): failed to affect TPA-induced cPKC-a redistribution | concentration which changed nPKC-e localisation significantly (nPKC-e): 0.1 pM

CN[C@@H]1C[C@H]2O[C@@](C)([C@@H]1OC)n1c3ccccc3c3c4c(c5c6ccccc6n2c5c31)C(=O)NC4 [Staurosporine, staurosporine]
IC50 (A549 cells; [8]): 1.2 nM

CN[C@@H]1C[C@H]2O[C@@](C)([C@@H]1OC)n1c3ccccc3c3c4c(c5c6ccccc6n2c5c31)C(=O)N[C@H]4O [UCN-01]
IC50 [1, 5]: < 1000 nM | IC50 (PKC-depleted A549 cells; [6]): 47 nM | IC50 (A549 cells; [7]): 68 nM | effect on TPA-induced cPKC-a redistribution (cPKC-a; [4]): behaved similarly | blots in which TPA-induced cPKC-a translocation was augmented (cPKC-a; A549 cells, UCN-01 at 1 (micromolar) with TPA 25 nM): three out of six | concentration required for translocation relative to IC50 for growth of A549 cells (nPKC-e; A549): 2- to 3 fold | concentration which changed nPKC-e localisation significantly (nPKC-e; A549 cells, 30 min, P<0.05 vs control): 0.1 pM

CN(C)CCCn1cc(C2=C(c3c[nH]c4ccccc34)C(=O)NC2=O)c2ccccc21 [GF 109203X]
IC50 ([1]; A549 and MCF-7 cells, read-out: IC50 for interference with cell growth): > 7000 nM | effect on TPA-induced cPKC-a redistribution (cPKC-a): failed to affect TPA-induced cPKC-a redistribution | concentration which changed nPKC-e localisation significantly (nPKC-e): 0.1 pM

CCCCCCCCCCCCC(=O)N1CCCCC1CNC(=O)C(N)CCCCN (stereo not drawn) [NPC 15-437, 2,6-Diamino-N-([l-(1-oxotridecyl)-2-piperidinyl]methyl)hexanamide]
IC50 [1, 9]: > 1000 nM

CCCCCCCCCCCCCCCCOP(=O)([O-])OCC[N+](C)(C)C [Miltefosine, Hexadecylphosphocholine]
IC50 [1, 10]: > 1000 nM | effect on TPA-induced cPKC-a redistribution (cPKC-a; [4]): failed to affect TPA-induced cPKC-a redistribution

CCCCCCCCCCCCC/C=C/[C@@H](O)[C@H](CO)[N+](C)(C)C [TMS, trimethylsphingosine]
IC50 [1, 9]: > 1000 nM

CC1CNCCN1S(=O)(=O)c1cccc2cnccc12 (stereo not drawn) [H-7, 1-(5-Isoquinolinesulfonyl)-2-methylpiperazine]
IC50 [1, 10]: > 1000 nM | IC50 (PKC-depleted A549 cells; [8]): 20000 nM | IC50 (A549 cells; [8]): 32000 nM | effect on TPA-induced cPKC-a redistribution (cPKC-a): failed to affect TPA-induced cPKC-a redistribution

COc1c(C[C@@H](C)OC(=O)Oc2ccc(O)cc2)c2c3c(C[C@@H](C)OC(=O)c4ccccc4)c(OC)c(=O)c4c(O)cc(OC)c(c5c(OC)cc(O)c(c1=O)c52)c43 [Calphostin C, calphostin C]
IC50 ([1]; Homo sapiens, A549 and MCF-7 cells, read-out: IC50 values for growth arrest (stronger growth inhibitors)): < 1000 nM | effect on TPA-induced cPKC-a redistribution (cPKC-a): failed to affect TPA-induced cPKC-a redistribution

CCC/C=C/C=C/C(=O)O[C@H]1/C(=C/C(=O)OC)C[C@H]2C[C@H]([C@@H](C)O)OC(=O)C[C@H](O)C[C@@H]3C[C@H](OC(C)=O)C(C)(C)[C@](O)(C[C@@H]4C/C(=C/C(=O)OC)C[C@H](/C=C/C(C)(C)[C@]1(O)O2)O4)O3 [bryostatin 1]
down-regulation of cPKC-a and nPKC-e (cPKC-a and nPKC-e): completely down-regulated | growth inhibition under PKC depletion conditions [2]: negligible | dose-limiting toxicity [3]: myalgia
